Assay [1] has as its system Blood platelet aggregation. In words: Inhibition test of human in vitro platelet aggregation (ADP-induced). Type of assay: cell-based. As to the method:
The blood platelet counts of PRP were adjusted to (50 to 60) x 10^4/µl by diluting with PPP.
Blood platelet aggregation was determined according to the method of Born G.V.R., [Nature, vol. […] That is, a solution of the compound of Formula (I) as a test drug in dimethyl sulfoxide was adjust to the desired concentration with a physiological saline solution. 25 µl of the solution was added to 250 µl of PRP and incubated at 37°C for 3 minutes, and 25 µl of ADP (final concentration : 7 µM) was added thereto.

The target in assay [2] is T1, fibrinogen receptor (GpIIb/IIIa) (Homo sapiens, UniProt P05106+P08514).
T1 construct: gel filtration using Sepharose 2B column to give a blood platelet suspension; endogenous in cells; host or cells: human blood platelets (gel-filtered, from platelet rich plasma of a healthy donor)
The assay can be described thus: Human blood platelet fibrinogen binding test. The conditions noted are these: inhibition of binding of 125I labelled human fibrinogen to human blood platelet suspension; ADP final concentration 10 µM. Here is the method:
The precipitate was suspended in a Tyrode's solution (20% fetal bovine serum, 2 mM Mg^2+), followed by gel filtration using Sepharose 2B column to give a blood platelet suspension (1 x 10^9/ml) apart from fibrinogen. […] The binding inhibition rate of the test drug was then calculated.

Structures can show the parent of a compound that is named as a salt.

T1 sequence (P08514 32-887 limits assumed): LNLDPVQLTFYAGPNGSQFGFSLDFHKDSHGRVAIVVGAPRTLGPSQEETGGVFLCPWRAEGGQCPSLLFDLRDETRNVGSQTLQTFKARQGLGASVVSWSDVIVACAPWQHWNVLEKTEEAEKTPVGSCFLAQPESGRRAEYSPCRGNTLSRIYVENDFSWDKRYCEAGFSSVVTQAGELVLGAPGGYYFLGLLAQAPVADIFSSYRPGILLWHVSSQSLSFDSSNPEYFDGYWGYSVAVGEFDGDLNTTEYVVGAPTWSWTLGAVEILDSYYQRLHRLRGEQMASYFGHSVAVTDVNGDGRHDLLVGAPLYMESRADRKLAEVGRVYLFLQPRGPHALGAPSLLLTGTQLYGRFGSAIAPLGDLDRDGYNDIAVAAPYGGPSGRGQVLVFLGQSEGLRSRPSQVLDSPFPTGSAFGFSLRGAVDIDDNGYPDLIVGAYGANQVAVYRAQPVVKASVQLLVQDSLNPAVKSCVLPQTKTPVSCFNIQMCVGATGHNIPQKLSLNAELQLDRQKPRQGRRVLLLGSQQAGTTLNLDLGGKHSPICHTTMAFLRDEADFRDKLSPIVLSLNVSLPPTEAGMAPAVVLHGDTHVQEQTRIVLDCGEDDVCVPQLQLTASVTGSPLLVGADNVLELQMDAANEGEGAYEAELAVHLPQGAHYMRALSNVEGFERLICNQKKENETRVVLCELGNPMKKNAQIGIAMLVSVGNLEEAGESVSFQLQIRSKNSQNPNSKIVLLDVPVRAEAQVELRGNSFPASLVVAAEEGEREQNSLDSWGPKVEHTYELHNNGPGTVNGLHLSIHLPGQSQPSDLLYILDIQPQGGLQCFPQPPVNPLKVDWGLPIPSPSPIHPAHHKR
T1 sequence (P08514 891-1039 partner limits assumed): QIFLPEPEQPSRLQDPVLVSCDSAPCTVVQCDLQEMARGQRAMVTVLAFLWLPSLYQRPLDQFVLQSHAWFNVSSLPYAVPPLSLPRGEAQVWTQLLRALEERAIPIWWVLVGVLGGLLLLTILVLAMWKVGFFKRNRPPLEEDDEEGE
T1 sequence (P05106 27-788): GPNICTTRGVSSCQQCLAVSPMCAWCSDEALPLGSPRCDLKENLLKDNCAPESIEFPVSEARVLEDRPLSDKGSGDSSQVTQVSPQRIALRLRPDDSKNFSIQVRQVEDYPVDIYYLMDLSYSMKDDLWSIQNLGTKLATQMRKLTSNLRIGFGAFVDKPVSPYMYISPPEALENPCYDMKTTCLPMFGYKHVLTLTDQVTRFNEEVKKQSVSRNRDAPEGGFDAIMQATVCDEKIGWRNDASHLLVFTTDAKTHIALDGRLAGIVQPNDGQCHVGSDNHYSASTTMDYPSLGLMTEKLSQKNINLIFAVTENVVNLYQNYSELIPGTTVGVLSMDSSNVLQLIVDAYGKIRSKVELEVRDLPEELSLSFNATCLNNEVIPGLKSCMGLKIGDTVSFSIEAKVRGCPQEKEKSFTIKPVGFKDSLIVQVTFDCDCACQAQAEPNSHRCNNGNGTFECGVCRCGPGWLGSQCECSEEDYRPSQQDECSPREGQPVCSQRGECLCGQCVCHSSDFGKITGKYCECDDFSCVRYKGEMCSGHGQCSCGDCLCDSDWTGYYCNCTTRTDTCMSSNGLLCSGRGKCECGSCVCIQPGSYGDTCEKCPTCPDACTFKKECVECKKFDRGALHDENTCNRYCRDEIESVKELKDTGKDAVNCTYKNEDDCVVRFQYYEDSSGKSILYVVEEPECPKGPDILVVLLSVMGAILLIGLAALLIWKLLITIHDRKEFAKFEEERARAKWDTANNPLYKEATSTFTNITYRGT

`Cc1c(C(=O)NCCC(=O)O)sc(=NC(=O)c2ccc(C(=N)N)cc2)n1Cc1ccccc1` [Compound 17]: in assay [1] (Homo sapiens, Platelet, 0.05 h), the IC50 stood at 19 nM. Same read-out and setting: for `Cc1c(C(=O)NCCC(=O)O)sc(=NC(=O)c2ccc(C(=N)Nc3ccccc3)cc2)n1C` [Compound 31, N-(2-carboxyethyl)-2-[4-(N-phenylamidino)benzoylimino]-3,4-dimethyl-3H-thiazoline-5-carboxamide hydrobromide] the value was 20 nM; for `Cc1c(C(=O)NCCC(=O)O)sc(=NC(=O)c2ccc(C(=N)N)cc2)n1C(C)C` [Compound 27], 15 nM. For `Cc1c(C(=O)NCCC(=O)O)sc(=NC(=O)c2ccc(C(=N)N)cc2)n1C` [Compound 5, N-(2-carboxyethyl)-2-(4-amidinobenzoylimino)-3,4-dimetylthiazoline-5-carboxamide hydrobromide], the IC50 in assay [1] (Homo sapiens, Platelet, 0.05 h) is 17 nM; in assay [2] it was 5.1 nM. The compound `Cc1c(C(=O)NCCC(=O)O)sc(=NC(=O)c2ccc(C(=N)N(C)Cc3ccccc3)cc2)n1C` [Compound 35, N-(2-carboxyethyl)-2-[4-(N-methyl-N-benzylamidino)benzoylimino]-3,4-dimethyl-3H-thiazoline-5-carboxamide hydrobromide] yielded an IC50 in assay [2] of 1 nM. The same measure, in the same setting: for `COC(=O)CCNC(=O)c1sc(=NC(=O)c2ccc(C#N)cc2)n(C(C)C)c1C` [Compound 23] the value was 6.3 nM. On the same count and under the same terms, next, `CNC(=N)c1ccc(C(=O)N=c2sc(C(=O)NCCC(=O)O)c(C)n2C)cc1` [Compound 7, N-(2-carboxyethyl)-2-[4-(N-methylamidino)benzoylimino]-3,4-dimethyl-3H-thiazoline-5-carboxamide hydrobromide]: 2.7 nM. The same measure, in the same setting: next, `Cc1c(C(=O)NCCC(=O)O)sc(=NC(=O)c2ccc(C(=N)N(C)C)cc2)n1C` [Compound 37, N-(2-carboxyethyl)-2-[4-(N,N-dimethylamidino)benzoylimino]-3,4-dimethyl-3H-thiazoline-5-carboxamide hydrobromide]: 1.3 nM. For `Cc1c(C(=O)NCCC(=O)O)sc(=NC(=O)c2ccc(C(=N)NCc3ccccc3)cc2)n1C` [Compound 29], the IC50 worked out at 14 nM in assay [1] (Homo sapiens, Platelet, 0.05 h) and 7.9 nM in assay [2]. As for “3-[3-(4-amidinobenzoyl)benzamide]propionic acid [Control, reference compound]”, the concentration for half-maximal inhibition (IC50) in assay [1] (concentration causing 50% inhibition of the maximum aggregation, human PRP, ADP final concentration 7 µM, incubated at 37°C for 3 minutes) came out at 105 nM; in assay [2], 84.4 nM. For `CCCCn1c(C)c(C(=O)NCCC(=O)O)sc1=NC(=O)c1ccc(C(=N)N)cc1` [Compound 22], in assay [1] (Homo sapiens, Platelet, 0.05 h), the IC50 came to 18 nM.
